Results as given in patent publication US20160122723A1, “ENGINEERED THREE-DIMENSIONAL SKIN TISSUES, ARRAYS THEREOF, AND METHODS OF MAKING THE SAME” (ORGANOVO, INC., priority 2014, published 2016).
Like-named read-outs stand apart in the source and are kept apart here.

How the values were obtained:
Type in all cases: cell-based, human
[1] = test system: bioprinted full thickness skin tissue; experiment: Skin irritation test, LDH activity, 15 minute exposure, 24 well plate format (Example 5)
From the text: Bio-ink was generated by a cellular mixture of 100% primary adult human dermal fibroblasts (HDFa) in 8% gelatin (Novogel® 2.0) in a concentration of 50 million cells per milliliter. The cell: gelatin ratio was altered to further reduce the cellular density of the dermal sheet to better mimic dermal tissue in native skin. Three-dimensional bio-ink constructs were printed by continuous deposition using the Novogen Bioprinter® platform in a 2 mm×2 mm×0.5 mm base sheet to create a dermal structure resembling a sheet. A smaller syringe needle was used to achieve greater resolution at the reduced size. Instead of printing one 0.5 mm sheet with a 500 μm diameter syringe needle, two layers of 0.25 mm sheets printed with a 250 μm diameter needle. One tissue construct was printed per transwell-in a 24 well plate. The transwell printing surface contained a polytetrafluoroethylene (PTFE)-membrane coated with equimolar mixture of types I and III collagen (bovine) with pores 3 μm in-size. […] Cell paste was measured post print at 96.0% viable by trypan exclusion assay. […] IL-1α production (R&D Systems) was analyzed in a colorimetric assays per manufacturer's protocol. Media was analyzed for lactate dehydrogenase as a marker for cytotoxicity. IL-1α production was assessed as a complementary endpoint to classic cytotoxicity testing to improve predictability of irritants. […]

[2] = test system: bioprinted full thickness skin tissue; experiment: Skin irritation test, IL-1α production, 15 minute exposure, 24 well plate format (Example 5)
From the text: (§1) Bio-ink was generated by a cellular mixture of 100% primary adult human dermal fibroblasts (HDFa) in 8% gelatin (Novogel® 2.0) in a concentration of 50 million cells per milliliter. The cell: gelatin ratio was altered to further reduce the cellular density of the dermal sheet to better mimic dermal tissue in native skin. Three-dimensional bio-ink constructs were printed by continuous deposition using the Novogen Bioprinter® platform in a 2 mm×2 mm×0.5 mm base sheet to create a dermal structure resembling a sheet. A smaller syringe needle was used to achieve greater resolution at the reduced size. Instead of printing one 0.5 mm sheet with a 500 μm diameter syringe needle, two layers of 0.25 mm sheets printed with a 250 μm diameter needle. One tissue construct was printed per transwell-in a 24 well plate. The transwell printing surface contained a polytetrafluoroethylene (PTFE)-membrane coated with equimolar mixture of types I and III collagen (bovine) with pores 3 μm in-size. Epidermal cell paste containing a mixture of 100% primary neonatal human epidermal keratinocytes (HEKn) was then printed on top of the dermal bio-ink. Cell paste was measured post print at 96.0% viable by trypan exclusion assay. Cell number in deposited epidermal layer was estimated at 11,000 cells by cell counting on a Cell-O-Meter. Immediately following the print, constructs were placed in 4° C. for 10 minutes. This is a key step to harden the Novogel®, which helps to maintain the printed shape and improve construct to construct uniformity. Cold media was then added to the outer well of the transwell in a volume of 1 ml. The media used for subsequent growth and maintenance of the skin tissue was a 50:50 ratio of HDFa:HEKn media. The initial volume added was sufficient to submerge the structure. […] IL-1α production (R&D Systems) was analyzed in a colorimetric assays per manufacturer's protocol. Media was analyzed for lactate dehydrogenase as a marker for cytotoxicity. IL-1α production was assessed as a complementary endpoint to classic cytotoxicity testing to improve predictability of irritants. […]

[3] = test system: bioprinted full thickness skin tissue; experiment: Skin irritation test, viability by alamar blue assay, 15 minute exposure, 24 well plate format (Example 5)
From the text: as §1

[4] = test system: bioprinted full thickness skin tissue; experiment: Skin irritation test, lactate dehydrogenase (LDH) activity in media, 1 hour exposure (Example 4); conditions: 1% Triton X 100 for 1 hour, apical; at 1 hour, 24 hours and 48 hours post treatment
From the text: (§2) Bio-ink was generated by a cellular mixture of 100% primary adult human dermal fibroblasts (HDFa) in 8% gelatin (Novogel® 2.0) at a concentration of 100 million cells per milliliter. The cell: gelatin ratio was altered to reduce the cellular density of the dermal sheet to better mimic dermal tissue in native skin. Three-dimensional bio-ink constructs were printed by continuous deposition using the Novogen Bioprinter® platform in a 4 mm×4 mm×0.5 mm base to create a dermal structure resembling a sheet. One tissue construct was printed per transwell in a […]. The transwell printing surface contained a polytetrafluoroethylene (PTFE) membrane coated with equimolar mixture of types I and III collagen (bovine) with pores 3 μm in size. Epidermal cell paste containing a mixture of 100% primary neonatal human epidermal keratinocytes (HEKn) was then printed on top of the dermal bio-ink. Cell paste was measured post print at 87.1% viable by trypan exclusion assay. Cell numbers in the deposited epidermal layer was estimated at 60,000 cells by cell counting on a Cell-O-Meter. […] IL-1α production (R&D Systems) was analyzed in a colorimetric assays per manufacturer's protocol. Media was analyzed for lactate dehydrogenase as a marker for cytotoxicity. IL-1α production was assessed as a complementary endpoint to classic cytotoxicity testing to improve predictability of irritants. […]

[5] = test system: bioprinted full thickness skin tissue; experiment: Skin irritation test, IL-1α production in media, colorimetric assay, 1 hour exposure (Example 4); conditions: 1% for 1 hour
From the text: as §2, with “Cell-O-Meter. Immediately following the print, constructs were placed at 4° C. for 10 minutes. Cold media was then added to the outer well of the transwell in a volume of 3 ml. The media used for subsequent growth and maintenance of the skin tissue was a 50:50 ratio of HDFa:HEKn media. The initial volume added was sufficient to submerge the structure. All subsequent media changes used warmed media (37° C.) added to the outer well of the transwell and not to the inner basket. Media was changed 48 hours later and reduced to a volume of 1.5 ml per well to bring the structure to an air-liquid interface (ALI). Media and subsequently changed 48 hours after that (day 4) at a volume of 1.5 ml.” for “Cell-O-Meter.”

[6] = test system: bioprinted full thickness skin tissue; experiment: Skin irritation test, qPCR gene expression analysis (Example 4); conditions: 1% for 1 hour
From the text: Bio-ink was generated by a cellular mixture of 100% primary adult human dermal fibroblasts (HDFa) in 8% gelatin (Novogel® 2.0) at a concentration of 100 million cells per milliliter. The cell: gelatin ratio was altered to reduce the cellular density of the dermal sheet to better mimic dermal tissue in native skin. Three-dimensional bio-ink constructs were printed by continuous deposition using the Novogen Bioprinter® platform in a 4 mm×4 mm×0.5 mm base to create a dermal structure resembling a sheet. One tissue construct was printed per transwell in a […]. The transwell printing surface contained a polytetrafluoroethylene (PTFE) membrane coated with equimolar mixture of types I and III collagen (bovine) with pores 3 μm in size. Epidermal cell paste containing a mixture of 100% primary neonatal human epidermal keratinocytes (HEKn) was then printed on top of the dermal bio-ink. Cell paste was measured post print at 87.1% viable by trypan exclusion assay. Cell numbers in the deposited epidermal layer was estimated at 60,000 cells by cell counting on a Cell-O-Meter. Immediately following the print, constructs were placed at 4° C. for 10 minutes. Cold media was then added to the outer well of the transwell in a volume of 3 ml. The media used for subsequent growth and maintenance of the skin tissue was a 50:50 ratio of HDFa:HEKn media. The initial volume added was sufficient to submerge the structure. All subsequent media changes used warmed media (37° C.) added to the outer well of the transwell and not to the inner basket. Media was changed 48 hours later and reduced to a volume of 1.5 ml per well to bring the structure to an air-liquid interface (ALI). Media and subsequently changed 48 hours after that (day 4) at a volume of 1.5 ml. On day 5, media was changed and further reduced to 1 ml per well and subsequently changed daily. On day 10, skin tissues were subject to a skin irritation test method using 1% Triton X 100. 1% Triton X-100™ is a known irritant and reference chemical currently used in other 3D skin models. Methods were based on OECD guidelines 439 and 431 for applying human skin models to in vitro skin irritation or corrosion, respectively. On day 10, conditioned media was saved (designated time=0) and 1 ml of fresh media was added to the outer well of the transwell. The printed skin tissue was then treated with 20 μl of PBS as a negative control or with 20 μl of 1% Triton X-100™ as a positive control and known irritant. […] IL-1α production (R&D Systems) was analyzed in a colorimetric assays per manufacturer's protocol. Media was analyzed for lactate dehydrogenase as a marker for cytotoxicity. IL-1α production was assessed as a complementary endpoint to classic cytotoxicity testing to improve predictability of irritants. […]

[7] = test system: bioprinted full thickness skin tissue; experiment: Skin irritation test, macroscopic and histological analysis (H&E, CK5/IVL, CK10, collagen 3, PCNA, TUNEL) (Example 4); conditions: 1% for 1 hour
From the text: Bio-ink was generated by a cellular mixture of 100% primary adult human dermal fibroblasts (HDFa) in 8% gelatin (Novogel® 2.0) at a concentration of 100 million cells per milliliter. The cell: gelatin ratio was altered to reduce the cellular density of the dermal sheet to better mimic dermal tissue in native skin. Three-dimensional bio-ink constructs were printed by continuous deposition using the Novogen Bioprinter® platform in a 4 mm×4 mm×0.5 mm base to create a dermal structure resembling a sheet. One tissue construct was printed per transwell in a […]. The transwell printing surface contained a polytetrafluoroethylene (PTFE) membrane coated with equimolar mixture of types I and III collagen (bovine) with pores 3 μm in size. Epidermal cell paste containing a mixture of 100% primary neonatal human epidermal keratinocytes (HEKn) was then printed on top of the dermal bio-ink. Cell paste was measured post print at 87.1% viable by trypan exclusion assay. Cell numbers in the deposited epidermal layer was estimated at 60,000 cells by cell counting on a Cell-O-Meter. Immediately following the print, constructs were placed at 4° C. for 10 minutes. Cold media was then added to the outer well of the transwell in a volume of 3 ml. The media used for subsequent growth and maintenance of the skin tissue was a 50:50 ratio of HDFa:HEKn media. The initial volume added was sufficient to submerge the structure. All subsequent media changes used warmed media (37° C.) added to the outer well of the transwell and not to the inner basket. Media was changed 48 hours later and reduced to a volume of 1.5 ml per well to bring the structure to an air-liquid interface (ALI). Media and subsequently changed 48 hours after that (day 4) at a volume of 1.5 ml. On day 5, media was changed and further reduced to 1 ml per well and subsequently changed daily. On day 10, skin tissues were subject to a skin irritation test method using 1% Triton X 100. 1% Triton X-100™ is a known irritant and reference chemical currently used in other 3D skin models. Methods were based on OECD guidelines 439 and 431 for applying human skin models to in vitro skin irritation or corrosion, respectively. On day 10, conditioned media was saved (designated time=0) and 1 ml of fresh media was added to the outer well of the transwell. The printed skin tissue was then treated with 20 μl of PBS as a negative control or with 20 μl of 1% Triton X-100™ as a positive control and known irritant. Test substances were pipetted manually to the apical surface of the tissue. Triton X-100™ was diluted to a 1% aqueous solution in deionized water and sterile filtered through a […] filter before use. Samples were incubated for 30 minutes at 37° C. followed by 30 minutes at room temperature for a total of 60 minutes. Media was saved (designated time=1 hour). Samples were then washed extensively by PBS rinsing. Transwells were then placed in a new 6-well plate with fresh media (1 ml) added to the outer well then placed back into 37° C. overnight. The media was then changed at 24 hours and at 48 hours post treatment. Total media collected included time points=−48, 0, 1, 24, and 48 hours. IL-1α production (R&D Systems) was analyzed in a colorimetric assays per manufacturer's protocol. Media was analyzed for lactate dehydrogenase as a marker for cytotoxicity. IL-1α production was assessed as a complementary endpoint to classic cytotoxicity testing to improve predictability of irritants. Keratinocytes normally produce and release inflammatory cytokine IL-1α in response to chemical or physical stress. At 48 hours post treatment (day 12), tissues were either lysed for RNA extraction and subsequent qPCR analysis, or tested for viability by alamar blue assay then rinsed in PBS and fixed with 2% PFA for histological analysis. Alamar blue (Life Technologies) was added per manufacturer's instructions to media and incubated with tissue constructs (1 ml) at 37° C. for 3 hours. […]

[8] = test system: bioprinted full thickness skin tissue; experiment: Skin irritation test, viability by alamar blue assay, 1 hour exposure (Example 4); conditions: 1% for 1 hour; 48 hours post treatment (day 12)
From the text: as §2

CCCCCCCCCCCCOS(=O)(=O)[O-].[Na+] [SDS]
LDH activity higher than PBS [1]: about 1.7 fold | IL-1a production [2]: induced | IL-1a production, response compared between the two irritants [2]: much stronger response | irritant strength under these testing conditions [3]: much stronger irritant | viable compared to the PBS control (alamar blue) [3]: 2.45%

Triton X-100
LDH activity higher than PBS ([1]; 15 minute exposure, 5% SDS or 1% Triton X, 42 hours post exposure): about 1.4 fold | induction in LDH activity compared to PBS control [4]: roughly 2 fold | IL-1a production ([2]; 15 minute exposure, 5% SDS or 1% Triton X): induced | IL-1α levels ([5]; 24 hours post treatment): remained high | IL-1α levels ([5]; 48 hours post treatment): returned to baseline | IL-1α activity in comparison to PBS control ([5]; greatest difference observed 1 hour post treatment): increased | CK1 and CK10 gene expression ([6]; 48 hours post exposure): reduced | collagen production of types 1, 3, and 4 collagen (gene expression) ([6]; 48 hours post exposure): reduced | expression of both epidermal and dermal markers ([6]; 48 hours post exposure): dramatically reduces | IL1a gene expression increase in comparison to the PBS control ([6]; 48 hours post treatment): about 3 fold | irritancy to bioprinted skin as suggested by histology [7]: irritant | CK5 positive basal keratinocyte layer ([7]; 48 hours post treatment): fragmented | Collagen 3 staining compared to the PBS control ([7]; 48 hours post treatment): reduction in dermal fibroblast function | apoptosis by TUNEL staining in the dermal layer ([7]; 48 hours post treatment): increase in apoptosis | histological analysis by H&E ([7]; 48 hours post treatment): separation of the epidermal and dermal layers | proliferation by PCNA staining ([7]; 48 hours post treatment, dermal fibroblasts and basal layer): reduction in proliferation | reduction in viability as compared to the PBS control [8]: 80% | viable compared to the PBS control (alamar blue) ([3]; 15 minute exposure, 5% SDS or 1% Triton X, 42 hours post treatment (day 15)): 68.75%
